Non-standard residues stand in square brackets, D forms with d. Residues, ends and D or L forms follow the SMILES beside them. No end group written: not given here. *: point of attachment. pY = N[C@@H](Cc1ccc(OP(=O)(O)O)cc1)C(=O)O; Cbz = O=C(OCc1ccccc1)*
Columns and labels:
BM-DC [1] = test: Killing assay (fungicidal activity against Candida albicans); format: cell-based, mouse; conditions: for BM-DC mediated Candida albicans killing in the presence of inhibitor: inhibitor added 30 min prior to stimulation
Experimental: To assess the fungicidal activity, the indicated immune cells were plated in replicates at a density of 1×10^5 cells/well in 96-well plates. Cells were incubated with Candida albicans at a multiplicity of infection of 1:500 for 24 h. After incubation, phagocytes were fixed by the addition of paraformaldehyde at a final concentration of 4%. Subsequently, Candida albicans were stained with Crystal Violet (Sigma) and killing was assessed by a comparison of colony numbers in wells with or without phagocytes.
(§1) BM-M and BM-DC were stimulated with C. albicans (strain SC5314), Zymosan (Invivogen), Curdlan (Invivogen), TDM (Invivogen), CpG (Invivogen), LPS (Invivogen), or C. albicans hyphae. For inhibition experiments cells were treated with the Syk inhibitor R406 (Selleckchem), anti-Dectin-1 antibody (Invivogen), MG132 (Calbiochem), or Dynasore (Sigma-Aldrich), 30 min prior to stimulation (MOI: Immune cell: C. albicans=1:2). Fungal isolates of Candida krusei, Candida glabrata, and Candida dubliniensis were kindly provided by the Allgemeines Krankenhaus Vienna (AKH). Fungal isoates were tested by PCR to verify the respective species.

B16-SIY melanoma cells = test: B16-SIY in vivo tumor model; set-up: species or system mouse; conditions: C57Bl/6 mice; 100 μg i.p. every other day
Experimental: B16-SIY tumor cells as described in (Spranger, 2014) were cultured in DMEM cell culture media (Gibco) supplemented with 10% fetal bovine serum (Sigma), L-Glutamine (Thermo Fisher), Penicillin and Streptomycin (Thermo Fisher). 10^6 tumor cells were transplanted intradermally into C57Bl/6 mice. Mice were injected intraperitoneally with 100 μg of the indicated peptides or vehicle control every other day starting 24 h after tumor cell inoculation. Bodyweight and tumor volume were measured at the indicated time points, subsequently.

phosphorylated Syk = test: Western blotting of Syk in Candida albicans stimulated BM-DC with MG132; format: cell-based, mouse; conditions: MG132 10 μM
Experimental: as §1
Western blotting was performed according to standard protocols. Blots were blocked for 1 hour with 5% bovine serum albumin in 1×TBS/0.1% Tween-20, or 4% BSA in 1×TBS/0.1% Tween-20 for phosphorylated epitopes, followed by overnight incubation at 4° C. with primary antibodies. Subsequently, blots were washed three times in 1×TBS/0.1% Tween-20 for 15 min, followed by incubation with HRP-conjugated secondary antibodies (1:2500; GE Healthcare # NA9340V) for 45 min at room temperature, washed three times in 1×TBS/0.1% Tween-20 for 15 min and visualized using enhanced chemiluminescence (ECL Plus, Pierce). […] Precipitates were analyzed by Western blotting using the indicated antibodies. […] Precipitates were analyzed by Western blotting with the indicated antibodies.

BM-DC [2] = test: Cytokine secretion by Candida albicans stimulated BM-DC (ELISA); format: cell-based, mouse; conditions: 18 h
Experimental: Cytokine secretion by cell culture supernatants or in the peritoneal lavage was assessed with ELISA kits purchased from eBioscience (IL-1β, TNF, IL-6, IL-12, IL-23) or R&D Systems (IL-1Ra) according to the manufacturer's instructions. Production of reactive oxygen species (ROS) was measured with as assay using luminol as the probe in real-time over 90 min as described previously (Bourgeois et al., 2009). Caspase-8 activity was assessed using the CaspGLOW assay (Promega) according to the manufacturer's instructions.
as §1

BM-DC [3] = test: ROS production by BM-DC co-cultured with Candida albicans (luminol assay); format: cell-based, mouse; conditions: Cbl-b+/+ BM-DC; 100 μM peptide; versus no peptide
Excerpt: BM-DC or BM-M were obtained by differentiation from bone marrow precursor cells.

Candida albicans = test: Systemic (intravenous) Candida albicans infection of mice; format: in vivo, mouse; conditions: control peptides versus untreated control cohort
Experimental: 8-10 week old mice were infected with 10^5 colony forming units (CFU) of C. albicans (strain SC5314), 10^5 colony forming units (CFU) of C. dubliniensis, or 10^5 CFUs of Listeria monocytogenes (strain EGD) intravenously. C. albicans CFUs were assessed from various organs as described (Wirnsberger et al., 2014). For clodronate or PBS liposome treatment experiments, mice were injected intraperitoneally with 100 ul/10 g mouse weight of liposomes both 24 h before and 24 h after intravenous C. albicans infections. Clodronate or PBS control liposomes were obtained from clodronateliposomes.org, and handled according to the manufacturer's instructions.

human CD4+ T cells = test: Human T cell assays (CFSE proliferation, IFN-γ ELISA, CD69), CD4+ T cells; format: cell-based
Experimental: (§2) Peripheral blood mononuclear cells (PBMC) were purified from human blood using a Lymphoprep™ PBMC isolation kit (Stemcell Technologies), according to the manufacturer's instructions. Human CD4+ or CD8+ T cells were purified from PBMC using CD4 or CD8 MicroBeads (Miltenyi Biotec), respectively, and MACS technology (Miltenyi Biotec). For proliferation assays, flat-bottom 96-well plates were coated with CD3 (OKT3, 0.1 μg/ml) and CD28 (CD28.2, 0.1 μg/ml) antibodies in PBS at 37 degrees C. for 2 h. To monitor proliferative expansion, assays were carried out with carboxyfluorescein succinimidyl ester (CFSE; eBioscience) labeled T cells. T cells were cultured in X-VIVO 15 chemically defined, serum free hematopoietic cell medium (Lonza), with the indicated concentrations of peptide or vehicle control. After 72 h […], cells were labeled with antibodies against CD4 (RPA-T4, Brilliant Violet 510 labeled, Biolegend) or CD8 (RPA-T8, APC-eFluor 780 labeled, eBioscience), and CD69 (FN50, PE/Cy7 labeled, Biolegend), and analyzed on a Beckman Coulter Gallios flow cytometer. Data were analyzed using Beckman Coulter Kaluza software. IFN-γ secretion into cell culture supernatants of the proliferation assays was determined by enzyme-linked immunosorbent assays (ELISA) according to the manufacturer's (BD Biosciences) instructions.

human CD8+ T cells = test: Human T cell assays (CFSE proliferation), CD8+ T cells; format: cell-based; conditions: plate bound CD3/CD28 antibodies; 3 days; CFSE dilution
Experimental: as §2

murine CD4+ T cells = test: Murine T cell proliferation assay; format: cell-based, mouse; conditions: for proliferative response of cblb Δ/Δ CD4+ T cells: CD3 or CD3 plus CD28 antibodies, versus untreated cells; for proliferative response of cblb Δ/Δ CD4+ T cells / proliferative response of cblb+/+ CD4+ T cells: 3 days; for proliferative response of cblb+/+ CD4+ T cells: plate bound CD3 or CD3 plus soluble CD28 antibodies, versus no peptide
Experimental: Murine CD4+ T cells were purified from pooled spleens and lymph nodes using MACS technology (Miltenyi Biotec). […] Purified T cells were labeled with the cell proliferation dye eFluor 670 (eBioscience) and cultured in IMDM cell culture medium (Gibco), supplemented with 10% fetal bovine serum (Sigma), L-Glutamine (Thermo Fisher), Penicillin and Streptomycin (Thermo Fisher), in the presence of 5 ng/ml of recombinant IL-2 (Biolegend) and the indicated concentrations of peptide. After 3 days, cells were stained with the fixable viability dye eFluor 780 (Thermo Fisher), and stained with a CD4 antibody (RM4-5, Brilliant Violet 711, Biolegend). Cells were analyzed with a BD LSR Fortessa II flow cytometer (Becton Dickinson), subsequently, and data were analyzed using the FlowJo v10.0.8 software (Tree Star).

O=C(N/N=C/c1ccc(O)c(O)c1)c1cc2ccccc2cc1O [Dynasore]
BM-DC mediated Candida albicans killing in the presence of inhibitor (BM-DC [1]): abrogated

CC[C@H](C)[C@H](NC(=O)[C@H](CCCCN)NC(=O)[C@@H](NC(=O)[C@H](CCC(N)=O)NC(=O)[C@H](CCCNC(=N)N)NC(=O)[C@@H](N)CC(=O)O)[C@@H](C)CC)C(=O)N[C@@H](Cc1c[nH]c2ccccc12)C(=O)N[C@@H](Cc1ccccc1)C(=O)N[C@@H](CCC(N)=O)C(=O)N[C@@H](CC(N)=O)C(=O)N[C@@H](CCCNC(=N)N)C(=O)N[C@@H](CCCNC(=N)N)C(=O)N[C@@H](CCSC)C(=O)N[C@@H](CCCCN)C(=O)N[C@@H](Cc1c[nH]c2ccccc12)C(=O)N[C@@H](CCCCN)C(=O)N[C@@H](CCCCN)C(=O)N[C@@H](CO)C(=O)N[C@H](C(=O)N1CCC[C@H]1C(=O)N[C@@H](CC(N)=O)C(=O)N[C@@H](Cc1ccccc1)C(=O)NCC(=O)N[C@H](C(=O)N[C@@H](Cc1ccc(OP(=O)(O)O)cc1)C(=O)NCC(=O)N[C@H](C(=O)N[C@@H](CO)C(=O)N1CCC[C@H]1C(=O)N[C@@H](Cc1c[nH]c2ccccc12)C(=O)NCC(=O)N1CCC[C@H]1C(=O)N[C@@H](CCC(=O)O)C(=O)O)[C@@H](C)O)C(C)C)[C@@H](C)O [M2]
bodyweight gain (B16-SIY melanoma cells): did not affect

CC(C)C[C@@H](C=O)NC(=O)[C@H](CC(C)C)NC(=O)[C@H](CC(C)C)NC(=O)OCc1ccccc1 [MG132] (Cbz-Leu-Leu-Leu-aldehyde)
levels of phosphorylated Syk (phosphorylated Syk; Cbl-b Δ/Δ BM-DC stimulated with Candida albicans): did not change
phosphorylated Syk in lysates (phosphorylated Syk; Cbl-b+/+ BM-DC stimulated with Candida albicans): increase

COc1cc(Nc2ncc(F)c(Nc3ccc4c(n3)NC(=O)C(C)(C)O4)n2)cc(OC)c1OC [R406]
BM-DC mediated Candida albicans killing in the presence of inhibitor (BM-DC [1]): almost completely abrogated
IL-1β secretion by Candida albicans stimulated BM-DC (BM-DC [2]; BM-DC of all three genotypes): almost completely abrogated
release of IL-6 by Candida albicans stimulated BM-DC (BM-DC [2]; all three genotypes): almost completely abrogated
release of TNF by Candida albicans stimulated BM-DC (BM-DC [2]; all three genotypes): almost completely abrogated

DRQIKIWFQNRRMKWKK [Antennapedia peptide, cell penetrating peptide derived from the Drosophila Antennapedia homeodomain, used alone as control]
ROS production by BM-DC in response to Candida albicans stimulation (BM-DC [3]): did not affect
fungicidal activity (killing capacity) of BM-DC upon Candida albicans infection (BM-DC [1]; 24 h co-culture, 100 μM peptide): did not affect
morbidity or mortality (Candida albicans): did not affect

DRQIKIWFQNRRMKWKKEAVPLYAWYPNPSTFES (DRQIKIWFQNRRMKWKKEAVPLYAW[pY]PNPSTFES; listed as Homo sapiens) [H2]
effects on proliferation, IFN-γ and CD69 of human T cells (human CD4+ T cells; scrambled control, compared with H1): Slight effects

DRQIKIWFQNRRMKWKKSTVSFNPYEPELAPWA (DRQIKIWFQNRRMKWKKSTVSFNP[pY]EPELAPWA; listed as Homo sapiens) [H1]
activation marker CD69 on T cells (human CD4+ T cells; percentage of CD69+ of total CD4+ cells, versus untreated cells): dose dependent upregulation
proliferative response of human CD4+ T cells (human CD4+ T cells; plate bound CD3/CD28 antibodies, 3 days, CFSE dilution): dose dependent significant increase
production of IFN-γ by CD4+ T cells (human CD4+ T cells; supernatants of proliferation assay, ELISA): increased significantly
proliferative response of human CD8+ T cells (human CD8+ T cells): dose dependent significant increase

KIKKTKKKGRKKIKKTKKKGRKSTPNFGVYGTSPWGPE (KIKKTKKKGRKKIKKTKKKGRKSTPNFGV[pY]GTSPWGPE; listed as Mus musculus) [M4]
proliferative response of cblb Δ/Δ CD4+ T cells (murine CD4+ T cells): only mildly increased
proliferative response of cblb+/+ CD4+ T cells (murine CD4+ T cells): only mildly increased

KIKKTKKKGRKKIKKTKKKGRKSTVSFNPYEPTGGPWG (KIKKTKKKGRKKIKKTKKKGRKSTVSFNP[pY]EPTGGPWG; listed as Mus musculus) [M3]
proliferative response of cblb Δ/Δ CD4+ T cells (murine CD4+ T cells): marked increase
effect on proliferation under suboptimal stimulatory conditions (murine CD4+ T cells; low concentrations of CD3, with or without CD28 co-stimulation): more pronounced effects
proliferative response of cblb+/+ CD4+ T cells (murine CD4+ T cells): dose dependent increase

— patent publication US20190262431A1, “CBL-FAMILY INHIBITOR COMPRISING A CBL-FAMILY TKB DOMAIN BINDING PEPTIDE FOR THE PREVENTION OR TREATMENT OF DISEASES” (IMBA - INSTITUT FÜR MOLEKULARE BIOTECHNOLOGIE GMBH, priority 2016, published 2019)
